In patent US20230107642A1 (Erasca, Inc., priority 2020, published 2023):

These compounds were tested against T1, K-Ras G12C (Homo sapiens, UniProt P01116, G12C) (assay: CAF assay (% CAF; method in Example 7, not in this part)). Conditions: 10 uM compound, 1 h incubation.
T1 construct: This protein contained 188 amino acids in total, including an N-terminal 6-Histidine tag; made in house; host or cells: E. coli BL21
Assay type: binding

Row | SMILES | % CAF @ 10 uM, 1h [%]
1 | C=CC(=O)N1CCN(c2nc(=O)n3c4c(c(-c5cc(Cl)c(F)cc5F)c(Cl)cc24)SC[C@@H]3CN2CCC3(CC2)COC3)[C@@H](C)C1 (atropisomer, axis not shown) [Example 482, (3S,10S)-3-((2-oxa-7-azaspiro[3.5]nonan-7-yl)methyl)-7-((S)-4-acryloyl-2-methylpiperazin-1-yl)-9-chloro-10-(5-chloro-2,4-difluorophenyl)-2,3-dihydro-5H-[1,4]thiazino[2,3,4-ij]quinazolin-5-one] | 90
2 | C=CC(=O)N1CCN(c2nc(=O)n3c4c(c(-c5cc(Cl)c(F)cc5F)c(Cl)cc24)SC[C@@H]3CN2CCC3(CC2)COC3)[C@@H](C)C1 (atropisomer, axis not shown) [Example 483, (3S,10R)-3-((2-oxa-7-azaspiro[3.5]nonan-7-yl)methyl)-7-((S)-4-acryloyl-2-methylpiperazin-1-yl)-9-chloro-10-(5-chloro-2,4-difluorophenyl)-2,3-dihydro-5H-[1,4]thiazino[2,3,4-ij]quinazolin-5-one] | 15.7
3 | C=CC(=O)N1C[C@H](C)N(c2nc(=O)n3c4c(c(-c5cc(F)c(F)cc5F)c(Cl)cc24)SC[C@@H]3CN2CCC3(CC2)COC3)C[C@H]1C (atropisomer, axis not shown) [Example 484, (3S,10S)-3-((2-oxa-7-azaspiro[3.5]nonan-7-yl)methyl)-7-((2S,5R)-4-acryloyl-2,5-dimethylpiperazin-1-yl)-9-chloro-10-(2,4,5-trifluorophenyl)-2,3-dihydro-5H-[1,4]thiazino[2,3,4-ij]quinazolin-5-one] | 77.9
4 | C=CC(=O)N1C[C@H](C)N(c2nc(=O)n3c4c(c(-c5cc(F)c(F)cc5F)c(Cl)cc24)SC[C@@H]3CN2CCC3(CC2)COC3)C[C@H]1C (atropisomer, axis not shown) [Example 485, (3S,10R)-3-((2-oxa-7-azaspiro[3.5]nonan-7-yl)methyl)-7-((2S,5R)-4-acryloyl-2,5-dimethylpiperazin-1-yl)-9-chloro-10-(2,4,5-trifluorophenyl)-2,3-dihydro-5H-[1,4]thiazino[2,3,4-ij]quinazolin-5-one] | 45
5 | C=CC(=O)N1C[C@H](C)N(c2nc(=O)n3c4c(c(-c5ccc(F)cc5F)c(C(F)(F)F)cc24)SC[C@@H]3COC)C[C@H]1C (atropisomer, axis not shown) [Example 508, (3S,10S)-7-((2S,5R)-4-acryloyl-2,5-dimethylpiperazin-1-yl)-10-(2,4-difluorophenyl)-3-(methoxymethyl)-9-(trifluoromethyl)-2,3-dihydro-5H-[1,4]thiazino[2,3,4-ij]quinazolin-5-one] | 92
6 | C=CC(=O)N1C[C@H](C)N(c2nc(=O)n3c4c(c(-c5ccc(F)cc5F)c(C(F)(F)F)cc24)SC[C@@H]3COC)C[C@H]1C (atropisomer, axis not shown) [Example 509, (3S,10R)-7-((2S,5R)-4-acryloyl-2,5-dimethylpiperazin-1-yl)-10-(2,4-difluorophenyl)-3-(methoxymethyl)-9-(trifluoromethyl)-2,3-dihydro-5H-[1,4]thiazino[2,3,4-ij]quinazolin-5-one] | 96.5
7 | C=CC(=O)N1C[C@H](C)N(c2nc(=O)n3c4c(c(-c5ccc(F)cc5F)c(C(F)(F)F)cc24)SC[C@@H]3COCCOC)C[C@H]1C (atropisomer, axis not shown) [Example 510, (3S,10S)-7-((2S,5R)-4-acryloyl-2,5-dimethylpiperazin-1-yl)-10-(2,4-difluorophenyl)-3-((2-methoxyethoxy)methyl)-9-(trifluoromethyl)-2,3-dihydro-5H-[1,4]thiazino[2,3,4-ij]quinazolin-5-one] | 72.9
8 | C=CC(=O)N1C[C@H](C)N(c2nc(=O)n3c4c(c(-c5ccc(F)cc5F)c(C(F)(F)F)cc24)SC[C@@H]3COCCOC)C[C@H]1C (atropisomer, axis not shown) [Example 511, (3S,10R)-7-((2S,5R)-4-acryloyl-2,5-dimethylpiperazin-1-yl)-10-(2,4-difluorophenyl)-3-((2-methoxyethoxy)methyl)-9-(trifluoromethyl)-2,3-dihydro-5H-[1,4]thiazino[2,3,4-ij]quinazolin-5-one] | 80.6
9 | C=CC(=O)N1C[C@H](C)N(c2nc(=O)n3c4c(c(-c5cc(Cl)c(F)cc5F)c(C(F)(F)F)cc24)SC[C@@H]3COC)C[C@H]1C (atropisomer, axis not shown) [Example 544, (3S,10S)-7-((2S,5R)-4-acryloyl-2,5-dimethylpiperazin-1-yl)-10-(5-chloro-2,4-difluorophenyl)-3-(methoxymethyl)-9-(trifluoromethyl)-2,3-dihydro-5H-[1,4]thiazino[2,3,4-ij]quinazolin-5-one] | 48.8
10 | C=CC(=O)N1C[C@H](C)N(c2nc(=O)n3c4c(c(-c5cc(Cl)c(F)cc5F)c(C(F)(F)F)cc24)SC[C@@H]3COC)C[C@H]1C (atropisomer, axis not shown) [Example 545, (3S,10R)-7-((2S,5R)-4-acryloyl-2,5-dimethylpiperazin-1-yl)-10-(5-chloro-2,4-difluorophenyl)-3-(methoxymethyl)-9-(trifluoromethyl)-2,3-dihydro-5H-[1,4]thiazino[2,3,4-ij]quinazolin-5-one] | 94.1
11 | C=CC(=O)N1[C@H](C)CN(c2nc(=O)n3c4c(c(-c5ccc(F)cc5F)c(C(F)(F)F)cc24)SC[C@@H]3COC)C[C@@H]1C (atropisomer, axis not shown) [Example 546, (3S,10S)-7-((3S,5R)-4-acryloyl-3,5-dimethylpiperazin-1-yl)-10-(2,4-difluorophenyl)-3-(methoxymethyl)-9-(trifluoromethyl)-2,3-dihydro-5H-[1,4]thiazino[2,3,4-ij]quinazolin-5-one] | 94.3
12 | C=CC(=O)N1[C@H](C)CN(c2nc(=O)n3c4c(c(-c5ccc(F)cc5F)c(C(F)(F)F)cc24)SC[C@@H]3COC)C[C@@H]1C (atropisomer, axis not shown) [Example 547, (3S,10R)-7-((3S,5R)-4-acryloyl-3,5-dimethylpiperazin-1-yl)-10-(2,4-difluorophenyl)-3-(methoxymethyl)-9-(trifluoromethyl)-2,3-dihydro-5H-[1,4]thiazino[2,3,4-ij]quinazolin-5-one] | 96.7

Same assay, conditions: 10 uM, 1 h; Table 3

Row | SMILES | % CAF @ 10 uM, 1h [%]
13 | C=CC(=O)N1CCN(c2nc(=O)n3c4c(c(-c5cccc6cnn(C)c56)c(Cl)cc24)SCC3)[C@@H](C)C1 (atropisomer, axis not shown) [Example 107, (S)-7-((S)-4-acryloyl-2-methylpiperazin-1-yl)-9-chloro-10-(1-methyl-1H-indazol-7-yl)-2,3-dihydro-5H-[1,4]thiazino[2,3,4-ij]quinazolin-5-one] | 0
14 | C=CC(=O)N1CCN(c2nc(=O)n3c4c(c(-c5cccc6cnn(C)c56)c(Cl)cc24)SCC3)[C@@H](C)C1 (atropisomer, axis not shown) [Example 108, (R)-7-((S)-4-acryloyl-2-methylpiperazin-1-yl)-9-chloro-10-(1-methyl-1H-indazol-7-yl)-2,3-dihydro-5H-[1,4]thiazino[2,3,4-ij]quinazolin-5-one] | 91.7
15 | C=CC(=O)N1CCN(c2nc(=O)n3c4c(c(-c5ccccc5F)c(Cl)cc24)SCC3)[C@@H](C)C1 (atropisomer, axis not shown) [Example 123, (R)-7-((S)-4-acryloyl-2-methylpiperazin-1-yl)-9-chloro-10-(2-fluorophenyl)-2,3-dihydro-5H-[1,4]thiazino[2,3,4-ij]quinazolin-5-one] | 91.3
16 | C=CC(=O)N1CCN(c2nc(=O)n3c4c(c(-c5ccccc5F)c(Cl)cc24)SCC3)[C@@H](C)C1 (atropisomer, axis not shown) [Example 124, (S)-7-((S)-4-acryloyl-2-methylpiperazin-1-yl)-9-chloro-10-(2-fluorophenyl)-2,3-dihydro-5H-[1,4]thiazino[2,3,4-ij]quinazolin-5-one] | 96
17 | C=CC(=O)N1CCN(c2nc(=O)n3c4c(c(-c5cccc6ccccc56)c(Cl)cc24)SCC3)[C@@H](C)C1 (atropisomer, axis not shown) [Example 172, 7-((S)-4-acryloyl-2-methylpiperazin-1-yl)-9-chloro-10-(naphthalen-1-yl)-2,3-dihydro-5H-[1,4]thiazino[2,3,4-ij]quinazolin-5-one] | 51.9
18 | C=CC(=O)N1C[C@H](C)N(c2nc(=O)n3c4c(c(-c5ccc(F)cc5F)c(Cl)cc24)S(=O)(=O)CC3)C[C@H]1C (atropisomer, axis not shown) [Example 177, (S)-7-((2S,5R)-4-acryloyl-2,5-dimethylpiperazin-1-yl)-9-chloro-10-(2,4-difluorophenyl)-2,3-dihydro-5H-[1,4]thiazino[2,3,4-ij]quinazolin-5-one 1,1-dioxide] | 93.5
19 | C=CC(=O)N1C[C@H](C)N(c2nc(=O)n3c4c(c(-c5ccc(F)cc5F)c(Cl)cc24)S(=O)(=O)CC3)C[C@H]1C (atropisomer, axis not shown) [Example 178, (R)-7-((2S,5R)-4-acryloyl-2,5-dimethylpiperazin-1-yl)-9-chloro-10-(2,4-difluorophenyl)-2,3-dihydro-5H-[1,4]thiazino[2,3,4-ij]quinazolin-5-one 1,1-dioxide] | 58.3
20 | C=CC(=O)N1CCN(c2nc(=O)n3c4c(c(-c5ccc(F)cc5F)c(Cl)cc24)SCC3)[C@@H](C)C1 (atropisomer, axis not shown) [Example 180, (R)-7-((S)-4-acryloyl-2-methylpiperazin-1-yl)-9-chloro-10-(2,4-difluorophenyl)-2,3-dihydro-5H-[1,4]thiazino[2,3,4-ij]quinazolin-5-one] | 94.7
21 | C=CC(=O)N1C[C@H](C)N(c2nc(=O)n3c4c(c(-c5cccc6ccccc56)c(Cl)cc24)SCC3)C[C@H]1C (atropisomer, axis not shown) [Example 183, 7-((2S,5R)-4-acryloyl-2,5-dimethylpiperazin-1-yl)-9-chloro-10-(naphthalen-1-yl)-2,3-dihydro-5H-[1,4]thiazino[2,3,4-ij]quinazolin-5-one] | 45.3
